Results from patent US10894042B2, “Methods and pharmaceutical compositions for the treatment of cancer” (INSERM (INSTITUT NATIONAL DE LA SANTÉ ET DE LA RECHERCHE …, priority 2014, dated 2021).
Where no end group is shown, it is not given here.

Experiments:
[1] = system: human colon cancer cells (LoVo cells); experiment: Growth of tumors from human colon cancer cell xenografts in nude mice; type: in vivo; conditions: for tumor growth versus PBS control mice: LoVo xenograft in nude mice, 100 μg intraperitoneally 2 times/week, 48 days of treatment
Description: FIG. 4: Effect of ip inoculation of OxA (▴), Suvorexant (◯) and Almorexant (Δ) on the growth of tumors developed by xenografting human colon cancer cells in nude mice. A. LoVo cells were inoculated in the flank of nude mice at day 0. Mice were injected 2 times/week intraperitoneally with 100 μg of OxA, Suvorexant or Almorexant in 100 μl solutions or with 100 μl of PBS (●) for controls. After 48 days of treatment, mice were sacrificed and tumor volume and weight were then recorded. The development of tumors was followed by caliper measurement. B. treatment (2 injections/week) with various doses of Almorexant (1 mg/kg (□), 2.5 mg/kg (Δ) or 5 mg/kg (◯)) compared to OxA treatment (5 mg/kg, ▴). Control was performed by injection of 100 μl PBS (●).
The inventors investigated the effect of intraperitoneal inoculation of OxA, Suvorexant and Almorexant on the growth of tumors developed by xenografting human colon cancer cells (LoVo cells) in nude mice.

OX1R = molecular target: T1, OX1R (Homo sapiens, UniProt O43613); experiment: Ca2+ mobilization assay in HEK-OX1R cells (FluoForte); type: cell-based
T1 construct: HEK cells expressing recombinant native OX1R (HEK-OX1R) cells were seeded in 96-wells plate; expressed in transfected cells; host or cells: HEK cells (HEK-OX1R)
T1 sequence (O43613 1-425): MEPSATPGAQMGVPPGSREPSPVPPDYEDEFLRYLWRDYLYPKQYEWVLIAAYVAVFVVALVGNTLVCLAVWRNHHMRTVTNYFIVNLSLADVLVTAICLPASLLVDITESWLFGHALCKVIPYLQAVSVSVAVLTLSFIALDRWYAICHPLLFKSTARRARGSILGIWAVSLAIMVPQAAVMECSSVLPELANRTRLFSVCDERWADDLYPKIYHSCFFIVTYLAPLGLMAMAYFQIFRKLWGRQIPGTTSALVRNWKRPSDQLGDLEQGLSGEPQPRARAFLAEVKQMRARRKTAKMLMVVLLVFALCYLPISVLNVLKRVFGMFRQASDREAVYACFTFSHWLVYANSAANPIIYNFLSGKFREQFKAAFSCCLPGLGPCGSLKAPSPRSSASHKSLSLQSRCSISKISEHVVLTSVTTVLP
Description: FIG. 1: Effect of orexin-A and SB408124 antagonist on Ca2+ mobilization in HEK-OX1R cells. Top, HEK-OX1R cells were incubated with fluorescence probe (FluoForte) for 45 min. at 37° C. according to FluoForte calcium assay kit (Enzo Life Sciences). 1 μM of OxA was added to cells and fluorescence emission was measured on TECAN Infinite 200 fluorospectrophotometer. Bottom, HEK-OX1R cells were incubated with fluorescence probe (FluoForte) for 45 min. at 37° C. and then incubated with 1 μM of SB408124 for 1 h at 37° C. After pre-incubation, 1 μM of OxA was added to cells and fluorescence emission was measured.
HEK cells expressing recombinant native OX1R (HEK-OX1R) cells were seeded in 96-wells plate, grown and maintained at 37° C. in a humidified 5% CO2/air incubator. 80,000 cells/well were incubated with FluoForte probe according to FluoForte calcium assay kit (ENZO life Sciences, Farmingdale, N.Y., USA) for 45 min. at 37° C. and then incubated with or without 1 μM of SB408124 antagonist for 1 h at 37° C. After pre-incubation, 1 μM of OxA was added and fluorescence was determined using TECAN Infinite 200 fluorospectrophotometer.

[2] = system: colon adenocarcinoma HT-29 cells; experiment: Cell growth determination, HT-29 cells; type: cell-based; conditions: 48 hr incubation, viable cells counted, OxA 0.1 μM, SB408124 increasing concentrations
Description: (§1) FIG. 2: Determination of the inhibition of cellular growth of HEK-OX1R cells and colon adenocarcinoma cells (HT-29) induced by […] of OxA or various concentrations of SB408124 antagonist. HEK-OX1R cells (black column) and HT-29 cells (white column) were incubated with 0.1 μM of OxA and indicated increasing concentration of SB408124, and cells were counted after 48 hr incubation. Results are expressed as the percentage of total viable cells.
(§2) HEK-OX1R cells or colon adenocarcinoma HT-29 cells were seeded, grown and maintained at 37° C. in a humidified 5% CO2/air incubator. After 24 hr culture, cells were treated with or without Orexin-A peptide or SB408124 antagonist, previously dissolved in DMSO, to be tested at the concentration indicated in the figure legends. After 48 hr of treatment, adherent cells were harvested by TriplE (Life Technologies, Saint Aubin, France) and manually counted. Apoptosis was determined using the Guava PCA system and the Guava nexin kit.

[3] = system: OX1R expressing colon adenocarcinoma cells, HT-29; experiment: Apoptosis assay (annexin V-PE binding, Guava nexin kit), HT-29 cells; type: cell-based; conditions: for apoptosis (annexin V-PE binding): HT-29 cells, 48 h, 1 μM orexin-A or various concentrations of SB408124
Description: FIG. 3: Effect of orexin-A and SB408124 antagonist on apoptosis in OX1R expressing colon adenocarcinoma cells, HT-29. HT-29 cells were challenged with 1 μM orexin-A or various concentration of SB408124 for 48 h. Apoptosis was measured by determination of annexin V-PE binding, and results are expressed as the percentage of apoptotic cells. Results are means±SE of three experiments. ***P<0.001.
as §2

HEK-OX1R cells = experiment: Cell growth determination, HEK-OX1R cells; type: cell-based; conditions: 48 hr incubation, viable cells counted, OxA 0.1 μM, SB408124 increasing concentrations
Description: as §1, §2

Molecule | tumor growth versus PBS control mice [1] | tumor growth inhibition, dose dependence ([1]; LoVo xenograft in nude mice, 1, 2.5 or 5 mg/kg, 2 injections/week) | Ca2+ mobilization (OX1R; 1 μM OxA, fluorescence (FluoForte)) | inhibition of cellular growth [2] | apoptosis (annexin V-PE binding) [3] | inhibition of cellular growth (HEK-OX1R cells) | agonist/antagonist character for OX1R-mediated calcium mobilization (OX1R) | effect on OxA-induced Ca2+ mobilization (OX1R; preincubation with 1 μM SB408124 for 1 h at 37° C., then 1 μM OxA) | agonist/antagonist character for OX1R-mediated mitochondrial apoptosis ([3]; colon cancer cell line)
CNC(=O)[C@@H](c1ccccc1)N1CCc2cc(OC)c(OC)cc2[C@@H]1CCc1ccc(C(F)(F)F)cc1 [Almorexant] | significantly smaller tumors | induce in a dose-dependent manner tumor growth inhibition |  |  |  |  |  |  | 
OxA: orexin A, a 33 amino acid neuropeptide, the natural OX1R agonist (QPLPDCCRQKTCSCRLYELLHGAGNHAAGILTL; ends and bridges not checked; cysteine pairing not given here; UniProt O43612 34-66, looked up) | significantly smaller tumors |  | large and transient | strong inhibition | induced an apoptotic effect | strong inhibition |  |  | 
Cc1cc(NC(=O)Nc2ccc(N(C)C)cc2)c2cc(F)cc(F)c2n1 [SB408124] |  |  |  | strong inhibition in a dose-dependent manner | induce in a dose-dependent manner cell apoptosis | strong inhibition in a dose-dependent manner | full antagonist | totally abolished | full agonist
Cc1ccc(-n2nccn2)c(C(=O)N2CCN(c3nc4cc(Cl)ccc4o3)CC[C@H]2C)c1 [Suvorexant] | significantly smaller tumors |  |  |  |  |  |  |  | 
